Read-outs that look alike come from different tables or passages of the source.
Tests used:
[1] = test system: methicillin resistant Staphylococcus aureus K24; assay: Enhancing effect for activity of imipenem by paper disk method; conditions: for diameter of inhibition zone in the presence of imipenem / diameter of inhibition zone, stemphone alone: 5 μg disc, 37° C., 20 hours; for diameter of inhibition zone in the presence of imipenem: MHA medium with imipenem 10 μg/ml; for diameter of inhibition zone, stemphone alone: MHA medium without imipenem
[2] = test system: Bacillus subtilis KB211 (PCI 219); assay: Antimicrobial action, paper disc method; type: cell-based; conditions: 5 μg/disc, disc diameter 6 mm, 37° C., 24 hours
[3] = test system: Micrococcus luteus KB212 (ATCC9341); assay: Antimicrobial action, paper disc method; type: cell-based; conditions: 5 μg/disc, disc diameter 6 mm, 37° C., 24 hours
[4] = test system: Acholeplasma laidlawii KB174; assay: Antimicrobial action, paper disc method; type: cell-based; conditions: 5 μg/disc, disc diameter 6 mm, 37° C., 24 hours
[5] = test system: Stapylococcus aureus KB210 (ATCC6538p); assay: Antimicrobial action, paper disc method; type: cell-based; conditions: 5 μg/disc, disc diameter 6 mm, 37° C., 24 hours
MRSA = assay: Enhancing activity against various antimicrobial agents by broth microdilution method (MIC); type: cell-based, Staphylococcus aureus; conditions: for Ratio (−/+stemphone C) of MIC: MIC alone / MIC with stemphone C 16 μg/ml, fold enhancement; for MIC: Staphylococcus aureus, MRSA, read-out: MIC, antibacterial agent alone (−); for MIC, +stemphone C: in combination with stemphone C 16 μg/ml
[6] = without stemphone C, 37° C., 20 hours

Row | Ratio (−/+stemphone C) of MIC (MRSA) | MIC (MRSA; [6]) | MIC, +stemphone C (MRSA; 37° C., 20 hours) | Compound | other results
1 | 16 | 64 µg/mL | 4 µg/mL | Cc1nnc(SCC2=C(C(=O)O)N3C(=O)[C@@H](NC(=O)Cn4cnnn4)[C@H]3SC2)s1 [cefazolin] | 
2 | 512 | 512 µg/mL | 1 µg/mL | Cc1onc(-c2ccccc2Cl)c1C(=O)N[C@@H]1C(=O)N2[C@@H]1SC(C)(C)[C@@H]2C(=O)O [cloxacillin] | 
3 | 512 | 16 µg/mL | 0.03 µg/mL | C[C@@H](O)[C@H]1C(=O)N2C(C(=O)O)=C(SCCN=CN)C[C@H]12 [imipenem] | 
4 | 4 | 2 µg/mL | 0.5 µg/mL | [H]/N=C(/N)N[C@H]1[C@H](O)[C@@H](O)[C@H](O[C@@H]2O[C@@H](C)[C@](O)(C=O)[C@H]2O[C@@H]2O[C@@H](CO)[C@H](O)[C@@H](O)[C@@H]2NC)[C@@H](N/C(N)=N\[H])[C@@H]1O [streptomycin] | 

The remaining lines, values behind:

Row | Compound | Ratio (−/+stemphone C) of MIC (MRSA) | MIC (MRSA; [6]) | MIC, +stemphone C (MRSA; 37° C., 20 hours) | other results
5 | C/C=C(\C)C(OC(C)=O)C(C)C1=CC(=O)C2=C(OC3(C)CCC4OC(C(C)(C)O)CC(O)C4(C)C3C2O)C1=O (centres unmarked) [Stemphone B] |  |  |  | diameter of inhibition zone in the presence of imipenem [1]: 15 mm; diameter of inhibition zone, stemphone alone [1]: not observed; zone of inhibition at 5 µg/disc [2]: 10 mm; zone of inhibition at 5 µg/disc [3]: 14 mm; zone of inhibition at 5 µg/disc [4]: 10 mm; zone of inhibition at 5 µg/disc [5]: 8 mm
6 | C/C=C(\C)C(OC(C)=O)C(C)C1=CC(=O)C2=C(OC3(C)CCC4OC(C(C)(C)O)CCC4(C)C3C2)C1=O (centres unmarked) [Stemphone C] |  |  |  | effect of stemphone C itself on growth of test organism (MRSA; final concentration 16 μg/ml): did not affect growth; diameter of inhibition zone in the presence of imipenem [1]: 20 mm; diameter of inhibition zone, stemphone alone [1]: not observed; enhancing activity for imipenem ([1]; paper disk method, in words): strong enhancing activity; zone of inhibition at 5 µg/disc [2]: 9 mm; zone of inhibition at 5 µg/disc [3]: 14 mm; zone of inhibition at 5 µg/disc [4]: 9 mm; zone of inhibition at 5 µg/disc [5]: 8 mm
7 | CN(C)[C@@H]1C(O)=C(C(N)=O)C(=O)[C@@]2(O)C(O)=C3C(=O)c4c(O)cccc4[C@@](C)(O)[C@H]3C[C@@H]12 [tetracycline] | 1 | 32 µg/mL | 32 µg/mL | 
8 | CN[C@H](CC(C)C)C(=O)N[C@H]1C(=O)N[C@@H](CC(N)=O)C(=O)N[C@H]2C(=O)N[C@H]3C(=O)N[C@H](C(=O)N[C@H](C(=O)O)c4cc(O)cc(O)c4-c4cc3ccc4O)[C@H](O)c3ccc(c(Cl)c3)Oc3cc2cc(c3O[C@@H]2O[C@H](CO)[C@@H](O)[C@H](O)[C@H]2O[C@H]2C[C@](C)(N)[C@H](O)[C@H](C)O2)Oc2ccc(cc2Cl)[C@H]1O [vancomycin] | 1 |  | 0.5 µg/mL | MIC (MRSA; 20 h): 0.5 µg/mL

— patent US7794991B2, “Stemphones and production thereof” (The Kitasato Institute, priority 2005, dated 2010)
